One molecule from patent publication US10632106B2, “Methods of cancer treatment with 2-(1′H-Indole-3′-carbonyl)-thiazole-4-carboxylic acid methyl ester” (Ariagen, Inc., priority 2009, dated 2020) can be followed below.

Each structure is given as a SMILES string.

The test system of data set [1] is Ketr-3 (human kidney cancer) xenografts. The experiment in a line: Ketr-3 xenograft growth inhibition. The format is in vivo. Particulars: ITE 100-200 mg/kg i.p. once daily. How it is done:
All the procedures related to animal handling, care, and the treatment in the study were performed following guidelines of KeyGen Biotechn Co., Ltd. (Nanjing, China), a contract research organization we hired, based on the guidance of the Association for Assessment and Accreditation of Laboratory Animal Care (AAALAC). Animals were checked for any effects of tumor growth and drug treatment on normal behavior such as mobility, food and water consumption, body weight gain/loss (bodyweights were measured every two days), eye/hair matting, and any other abnormal effect. Death and observed clinical signs were recorded. Individual animals with a tumor volume exceeding 3,000 mm^3 or animals of a group with a mean tumor volume exceeding 2,000 mm^3 were euthanized. In addition, animals showing signs of severe distress and/or pain or losing the capability of accessing adequate food or water were humanely sacrificed.
Cell lines HCT116, Siha, MFC were cultured in DMEM medium (high glucose) supplemented with 10% fetal bovine serum (FBS), SW116 and T24 in RPMI-1640 medium with 10% FBS, M14 and A375 in DMEM medium (high glucose) with 10% calf serum (CS), SGC7901 and Ketr-3 in RPMI-1640 medium with 10% CS, and CFPAC-1 in IMDM medium with 10% FBS. All of the cells were cultured, in the presence of 100 U/ml penicillin and 100 μg/ml streptomycin, at 37° C. in an atmosphere of 5% CO2 in air. […] The cells growing in an exponential phase were harvested and counted for tumor inoculation. Cell lines 5180 and U14 were maintained in ascites (peritoneal cavity fluid) of mice and were harvested and counted for tumor inoculation. […]
Tumor volume was measured every two days in two dimensions using a caliper and the volume was calculated with a formula of: V=0.5 a×b^2, where a and b are the long and short diameter (in mm) of a tumor, respectively. […] The TGD was calculated as: TGD=T−C, where T was the time (in days) required for tumors in a drug treated group to reach a predetermined mean tumor volume and C the time (in days) in the control group to reach the same volume. […]

Data set [2] can be described thus: PK studies of ITE in male nude mice (single dosing). Type of data set: in vivo. Particulars: for AUC / half-life: male, nude, mouse, plasma. How it is done: Male nude mice were also used in PK (pharmacokinetic) studies. For i.v. injection, ITE at 1 mg/kg b.w. was administered with DMSO as vehicle via tail vein. For i.p. Injection, ITE at 10, 40, and 80 mg/kg b.w. was delivered with DMSO via lower left abdominal quadrant. In p.o. injection, ITE at 40 and 80 mg/kg b.w. were administered with a vehicle of Labrasol:PEG 400 (2:8, v/v) via oral gavage. Every 15 mice were given a single injection at each dosing level and every 3 of the dosed mice were used to collect blood sample at each time point (0, 0.083, 0.25, 0.5, 1, 2, 4, 8, 24 hr.). Animals were rotated to be sampled twice each but the duration between the two sampling times was at least 110 min. The animal was anesthetized under Isoflurane and restrained manually. Approximately 150 μl of whole blood at each time point is collected (via retro-orbital puncture) into a K2-EDTA tube. Blood samples were put on ice and processed to plasma (4,000 g, 5 min, 4° C.) within 15 min post sampling. Plasma samples were stored at −80° C. until analysis. An aliquot of 20 μl plasma sample was added with 20 μl of an internal standard (Glipizide, 500 ng/ml in ΔCN, for extraction efficiency) to 120 μl of ΔCN (acetonitrile). The mixture was vortexed at 1,500 rpm for 2 min. and then centrifuged at 12,000 rpm for 5 min. Five (5) μl of the supernatant was injected into an LC-MS/MS system (API 4000, Foster City, Calif., USA). A Gemini-C18 column (2.0×50 mm, 5 μm) was used and the LC (liquid chromatography) was run at a flow rate of 0.45 ml/min. with the following program: where Pump A was for 1 mM NH4OAc (ammonium acetate) in water plus 0.025% FA (formic acid) whereas Pump B for 1 mM NH4OAC in acetonitrile plus 0.025% FA. The negative ionization process of the mass spectrometry was operated at an APCI (Atmospheric Pressure Chemical Ionization) mode while the detection at a MRM (Multiple Reaction Monitoring) mode. ITE was identified by recognizing an LC retention time of 2.5 min. and two mass peaks at 285.0 (before collision) and 142.0 m/z (after collision) while the internal standard of 2.35 min. and two mass peaks at 444.3 (before collision) and 319.3 m/z (after collision). ITE was quantified by a standard curve generated every time by a series of known quantities of ITE running through both the extraction/precipitation process after mixing with mouse plasma and the LC-MS/MS system. The WinNonlin V5.2 statistics software (Pharsight Corporation, California, USA) was used to generate PK parameters such as Cmax, Tmax, T1/2, and AUC (Area under Curve) etc. using a non-compartmental model. Results

[3] abbreviates: iv, 1 mg/kg b.w. bolus i.v. in DMSO.

On to `COC(=O)c1csc(C(=O)c2c[nH]c3ccccc23)n1` [ITE, 2-(1′H-indole-3′-carbonyl)-thiazole-4-carboxylic acid methyl ester], for which the TGD in data set [1] (TGD at Vol. 500) stood at 9 days. The “TGI (%)” value in data set [1] (TGI at day 28, TGI=(1−ΔT/ΔC)×100%) came out at 74%. Also, in data set [1] (end of therapy relative to beginning), the “Weight Loss” value came to 13%. Further, the “efficiency of absorption compared with i.v. injection” value in data set [2] (i.p. injection in DMSO) is recorded as “below 10%”. In addition, the AUC in data set [2] (ip, 10 mg/kg b.w. i.p. in DMSO) stood at 0.197 µg·h/mL; in data set [2] (ip, 40 mg/kg b.w. i.p. in DMSO), 0.332 µg·h/mL; in data set [2] (ip, 80 mg/kg b.w. i.p. in DMSO), 0.499 µg·h/mL; in data set [2] (setting [3]), 0.256 µg·h/mL; in data set [2] (po, 40 mg/kg b.w. p.o. in Labrasol:PEG 400 (2:8, v/v)), 0.107 µg·h/mL; in data set [2] (po, 80 mg/kg b.w. p.o. in Labrasol:PEG 400 (2:8, v/v)), 0.097 µg·h/mL. Also, the half-life in data set [2] (ip, 10 mg/kg b.w. i.p. in DMSO) is 1.13 h; in data set [2] (ip, 40 mg/kg b.w. i.p. in DMSO), 1.61 h; in data set [2] (ip, 80 mg/kg b.w. i.p. in DMSO), 5.17 h; in data set [2] (setting [3]), 0.1 h. For the same molecule, the absorption efficiency result in data set [2] (p.o. in Labrasol:PEG 400 (2:8, v/v)) is listed as “around 1%”.
